Test system: EMT6 mouse breast carcinoma syngeneic tumor
Experiment: Study 2: EMT6 mouse syngeneic tumor model, subcutaneous, anti-tumor efficacy
Format: in vivo, female BALB/c mice
Settings: for GRI (%) Day 21: vs vehicle; for Complete Regressions: n=10/group, 60-day study; for Combination Assessment / Synergy Score %: data through Day 21
Description: Studies 1 and 2: EMT6 is a mouse breast carcinoma cell line. EMT6 mouse syngeneic tumor model was generated by subcutaneous (sc) inoculation with 0.2×10^6 EMT6 cells (cell suspension) in nine to ten week old female BALB/c mice (Vital River Laboratory Animal Technology Co., Ltd., Beijing, China) in the flank. When the mean tumor volume reached 60 mm^3 in Study 1 and 75 mm^3 in Study 2 the animals were randomized into one vehicle control and seven treatment groups (n=10/group). Mice were then dosed with vehicle (phosphate buffered saline (PBS)) or Compound No. 14 or 10 Gy Radiation or Compound No. 14 plus 10 Gy Radiation over an eight-day period. Tumor growth and body weight were measured three times per week during the treatment and post-treatment periods. Mice were humanely euthanized once they reached their humane endpoint or until study termination on day 72 (Study 1) or on day 60 (Study 2).
Studies 1 and 2: A 0.1 mg/mL stock solution of Compound No. 14 was formulated in PBS and administered intravenously (IV) based on exact animal body weight on each day of treatment, using a dosing volume of 10 mL/kg body weight. Final doses received were 1.0 mg/kg. […] Compound No. 14 was administered on a Q3D schedule for 3 doses (Day 2, 5 and 8) in single agent treatment group and in combination treatment groups. Dose formulation of Compound No. 14 was prepared once and utilized for dosing on Days 2, 5 and 8.
Radiation treatment for Studies 1 and 2 was performed using RadSource RS 2000 X-ray irradiator (Rad Source Technologies). Animals received 1.046 Gy/minute of radiation and approximately 9.5 min was needed to reach a 10 Gy dose delivery. Animals were anesthetized prior to placement in irradiation chamber using isoflurane and checked for reflexes. Radiation beam was focused on tumor with manual positioning. Radiation was administered via manual positioning in a single 10 Gy dose on either day 0, 2 or 4 in Study 1, and on either day 0, 1, 2, 3 or 4 in Study 2.
Tumors were measured three times weekly using vernier calipers. Tumor volumes were calculated using standard equation: V=W^2×L/2, where V=volume, W=width, and L=length for the tumor. When mean tumor volumes reached approximately 60 mm^3 for Study 1, 75 mm^3 for Study 2, and 110 mm^3 for Study 3, mice were randomized into eight groups (n=10/group) in Studies 1 and 2, and nine groups (n=8/group) in Study 3. These groups were then dosed with vehicle (PBS), Compound No. 14, Radiation, anti-mPD-1 or isotype control, or combinations of these agents as described in Tables 1a, 2a, and 3a. Tumor size and body weight were measured three times a week for the duration of each study. Mice were euthanized for Studies 1 and 2 when their tumor volumes reached greater than 10% of their body weight or when an individual tumor exceeded the humane end-point for size (>2 cm) or when an animal lost 20% of their body weight relative to the start of the study or lost 15% of their body weight in any 24 hr time frame. Mice were euthanized in Study 3 when tumor volume exceeded 2,000 mm^3 or an animal lost more than 20% of their body weight relative to the start of study.
Growth Rate Inhibition: The differences in the tumor growth trends over time between pairs of treatment groups were assessed by fitting each animal's data to a simple exponential growth model and comparing the mean growth rates of the two groups, as described in more detail below. The difference in the growth rates was summarized by the GRI, which is the reduction in growth rate experienced by the treatment group relative to that of the reference group, expressed as a fraction of the vehicle growth rate.
μT and μC are the mean tumor growth rates for the treatment and reference groups, respectively. μV is the mean tumor growth rate for the vehicle group, which in most cases is the same as the reference group.
A GRI greater than 100% is interpreted as tumor regression when the vehicle group is the same as the reference group. […]

[1] = Compound No. 14 1.0 mg/kg IV Q3D×3 + Radiation (10Gy) (Day 2)
[2] = Compound No. 14 1.0 mg/kg IV Q3D×3 + Radiation (10Gy) (Day 3)
[3] = Compound No. 14 1.0 mg/kg IV Q3D×3 + Radiation (10Gy) (Day 4)
[4] = Compound No. 14 + Radiation (10Gy) (Day 0)
[5] = Compound No. 14 + Radiation (10Gy) (Day 1)
[6] = Compound No. 14 + Radiation (10Gy) (Day 2)
[7] = Compound No. 14 + Radiation (10Gy) (Day 3)
[8] = Compound No. 14 + Radiation (10Gy) (Day 4)

Nc1ncnc2c1ncn2[C@@H]1O[C@@H]2COP(=O)(S)O[C@@H]3[C@H](O)[C@@H](COP(=O)(S)O[C@H]2[C@H]1F)O[C@H]3n1cc(F)c2c(=O)[nH]cnc21 (stereo partly drawn) [Compound No. 14]
GRI (%) Day 21 (Compound No. 14 1.0 mg/kg IV Q3D×3 (Days 2, 5, 8), single agent): 20%
GRI (%) Day 21 (Compound No. 14 1.0 mg/kg IV Q3D×3 + Radiation (10Gy) (Day 0)): 60%
GRI (%) Day 21 (Compound No. 14 1.0 mg/kg IV Q3D×3 + Radiation (10Gy) (Day 1)): 62%
Complete Regressions [1]: 2
GRI (%) Day 21 [1]: 68%
Complete Regressions [2]: 4
GRI (%) Day 21 [2]: 64%
Complete Regressions [3]: 2
GRI (%) Day 21 [3]: 60%
Combination Assessment [4]: additive
Synergy Score % [4]: −20%
Combination Assessment (Compound No. 14 + Radiation (10Gy) (Day 0), listed as Compound No.14): Additive
Combination Assessment [5]: Additive
Synergy Score % [5]: −22%
Combination Assessment [6]: synergistic
Synergy Score % [6]: −28%
Combination Assessment (Compound No. 14 + Radiation (10Gy) (Day 2), listed as Compound No.14): Synergistic
Combination Assessment [7]: Additive
Synergy Score % [7]: −24%
Combination Assessment [8]: Additive
Synergy Score % [8]: −20%

Source: US20240335464A1, “ADMINISTRATION OF STING AGONIST, CHECKPOINT INHIBITORS, AND RADIATION” (Takeda Pharmaceutical Company Limited, priority 2020, published 2024)
